Reference: paper PMC8997995, “Amphiphilic Cell-Penetrating Peptides Containing Natural and Unnatural Amino Acids as Drug Delivery Agents” (Cells, 2022)
Like-named read-outs stand apart in the source and are kept apart here. Non-standard residues stand in square brackets, D forms with d. Residues, ends and D or L forms follow the SMILES beside them. *: point of attachment. 5FAM = O=C1OC2(c3ccc(O)cc3Oc3cc(O)ccc32)c2ccc(C(=O)*)cc21; Dip = N[C@H](C(=O)O)C(c1ccccc1)c1ccccc1

Experiments:
[1] = parameters: method as in earlier work; conditions: cited from earlier work
Excerpt: In continuation of our efforts to design cyclic CPPs with improved molecular transporter properties, we report here the design and synthesis of a new class of CPPs, containing R, diphenylalanine (Dip), and W residues (Figure 1), the evaluation of their cytotoxicity, cellular uptake, nanostructure formation, and mechanism of actions.

CCRF-CEM cells [2] = assay: In vitro cytotoxicity (MTS) in CCRF-CEM cells; assay type: cell-based, human; conditions: for reduction of cell proliferation: 25 µM, MTS, n = 3
Experimental: (§1) SK-OV-3, CCRF-CEM, HEK-293, MDA-MB-468, LLC-PK1, and MES-SA were used to determine the cytotoxicity of the synthesized linear and cyclic peptides. About 5000, 10,000, and 50,000 cells were seeded for SK-OV-3, HEK-293, and CCRF-CEM cells, respectively, in 0.1 mL of medium per well of 96-well plates. An appropriate medium was used for each cell line (SK-OV-3: McCoy’s 5A with L-glutamine containing fetal bovine serum (FBS) (10%) and penicillin or streptomycin (1%); CCRF-CEM: RPMI-1640 medium with L-glutamine and sodium bicarbonate containing FBS (10%) and penicillin or streptomycin (1%); MDA-MB-468 cells: DMEM/F12 (1:1) (1×) with L-glutamine and 15 mM HEPES containing FBS (10%) and penicillin or streptomycin (1%); LLC-PK1 cells: Dulbecco’s Modified Eagle’s Medium with 4500 mg/L glucose, L-glutamine and sodium bicarbonate, without sodium pyruvate liquid containing FBS (10%) and penicillin or streptomycin (1%); MES-SA cells: consisting of half SK-OV-3 and half CCRF-CEM media; and HEK-293 cells: Minimum Essential Medium Eagle with Earle’s salts and sodium bicarbonate, without L-glutamine containing FBS (10%) and penicillin or streptomycin (1%)). Then, 20 µL of peptides containing 5% DMSO in water were added to each well.
(§2) Adhesive cells were detached with 0.05% trypsin/EDTA after 15 min. The suspended cells were seeded in the medium 24 h prior to the experiment according to the previously reported procedure. The medium was changed before adding the peptides for adherent cells. Each concentration 5, 10, 25, 50, and 166 µM (containing 0.8% DMSO) had triplicate wells to minimize possible errors. […] The cell viability was measured by utilizing Multi-Mode Microplate Reader (SpectraMax M5 model, Molecular Devices, San Jose, CA, USA) after adding 20 µL of the MTS reagent to each well and incubating for 3 additional hours. […] The protocol manager was selected “endpoint” on the spectrophotometer’s software (SoftMax Pro 7). The 96-well plates were inserted inside spectrophotometer, and the data were acquired. The percentage of cell viability was calculated using the following equation:(1) =(Average OD values of samples treated with the compound /Average OD values of no treatment samples )∗100

CCRF-CEM cells [3] = assay: Cellular uptake by flow cytometry in CCRF-CEM cells; assay type: cell-based, human; conditions: peptide 10 µM, 3 h, no FBS, flow cytometry FITC, n = 3
Experimental: CCRF-CEM and SK-OV-3 cells were used to measure the cellular uptake of a fluorescent-labeled phosphopeptide (F’-GpYEEI) (2 µM), stavudine (F’-d4T) (2 µM) lamivudine (F’-3TC) (1–2 µM), emtricitabine (F’-FTC) (2 µM), and siRNA (F’-siRNA) (36 nM) with the least toxic concentration for each linear and the cyclic peptide (10 µM). The uptake was measured in the presence and absence of the peptides. The SK-OV-3 (0.5 million) and CCRF-CEM (a million) cells were incubated in each well of 6-well plates with the synthesized peptide and the fluorescent-labeled compound in one well. Another well contained the fluorescent-labeled compound alone for 3 h in an incubator (37 °C in a humidified atmosphere of 5% CO2). […] For more details, please refer back to the cytotoxicity method described above.
The cells were transferred to FACS analysis tubes after being washed with phosphate-buffered saline (PBS). The cells were centrifuged 2500 RPM for 5 min with Fisher Scientific accuSpin Micro 17 to precipitate the cells and to allow replacing the supernatant. The cells were then vortexed with Nerl Blood Bank Saline pH 7–7.2 (flow cytometry buffer) and transferred to the tube through a sterile cell strainer 40 µm Nylon Mesh. Finally, the cells were resuspended in flow cytometry buffer and analyzed by flow cytometry (FACSVerse model, Becton Dickinson, San Jose, CA, USA) using the FITC channel and the BD FACSuite software. The device was washed before each experiment, and the flow rate was set at medium. Finally, the cells were analyzed by using FITC channel […] argon laser for the excitation and the emitted 519 nm fluorescence for detection. The data presented was based on the FITC-A mean intensity signal for 10,000 cells collected. All assays were performed in triplicates. Results were evaluated to determine whether the peptides are facilitating the fluorescence compound to cross the membrane.
To determine the mechanism of the cellular uptake, F’-[K(DipR)5] or the physical mixture of the F’-GpYEEI and [DipR]5 were used to measure the fluorescence in the treated CCRF-CEM cells. F’-[K(DipR)5] (5 or 10 µM) or the physical mixture of the F’-GpYEEI (2 µM) and [DipR]5 (5 or 10 µM) were incubated with CCRF-CEM cells over 3 h. After each incubation, the medium containing the peptide and cells was removed. The same protocol as the cellular uptake study was used to prepare the cells as described above. Finally, the cells were resuspended in the buffer and analyzed by flow cytometry using the FITC channel and the BD FACSuite software. The data presented was based on the percentage of FITC-A mean intensity signal for 10,000 cells collected. All assays were performed in triplicates.

[4] = Transmission electron microscopy, self-assembly; assay type: physicochemical; conditions: TEM, 30 μM, dried on grid overnight, not stained
Experimental: Transmission electron microscopy (TEM) was done on a LVEM 5D Microscope model (Delong instruments, Brno, Czech Republic) samples were prepared on an Ultrathin Carbon Film on Lacey Carbon Support Film with 400 mesh copper from Ted Pella. Dilute solutions of 30 μM concentration were used for the TEM analysis. Samples were dropped on grids, evaporated overnight, and not stained. They were incubated for approximately 2 h after thawing from a freezer (0 to −18 °C). Samples were air-dried, and images were obtained with a LVEM5 (Delong Instruments, US) 5 keV field emission gun. The camera was Zyla 5.5 Scientific CMOS with specifications of exposure 50–200 [ms], pixel readout 200 MHz—lowest noise, dynamic range 12-bit (low noise), and summing 1.

[5] = Circular dichroism, estimate of secondary structure; assay type: physicochemical; conditions: CD, 100 µM peptide in water, principal component regression analysis
Experimental: Samples were prepared in 100 µM concentration dissolved in water only. The cuvette with the 1 mm path length was used for all the measurements. The circular dichroism analysis was performed with a J-1500 Jasco spectrophotometer using nitrogen gas and PM-539 detector. Parameters were selected as follows: data interval 0.1 nm, data points 701, data pitch 0.1 nm, CD scale 200 mdeg/0.1 dOD, FL scale 200 mdeg/0.1 dOD, D.I.T 2 s, bandwidth 1 nm, cell length 1 mm, start mode immediately, scanning mode continuous, scanning speed 50 nm/min, shutter control auto, and N2 flowmeter manual. An average of three readings between 190 and 260 nm were collected for each sample. The analysis was carried out using one of Multivariate Regression Analyses, which is Principal Component Regression (PCR) with a basis set containing 26 proteins reference under the following conditions: standardization of result 100, replaced negative value to zero, and rejection percentage of 1%.

HEK-293 cells = assay type: cell-based, human; conditions: HEK-293, 25 µM, 24 h incubation, MTS
Experimental: SK-OV-3, CCRF-CEM, HEK-293, MDA-MB-468, LLC-PK1, and MES-SA were used to determine the cytotoxicity of the synthesized linear and cyclic peptides. About 5000, 10,000, and 50,000 cells were seeded for SK-OV-3, HEK-293, and CCRF-CEM cells, respectively, in 0.1 mL of medium per well of 96-well plates. […]
Adhesive cells were detached with 0.05% trypsin/EDTA after 15 min. […] The cell viability was measured by utilizing Multi-Mode Microplate Reader (SpectraMax M5 model, Molecular Devices, San Jose, CA, USA) after adding 20 µL of the MTS reagent to each well and incubating for 3 additional hours. […] The percentage of cell viability was calculated using the following equation:(1) =(Average OD values of samples treated with the compound /Average OD values of no treatment samples )∗100

SK-OV-3 cells = assay type: cell-based, human; conditions: MTS, n = 3
Experimental: as §1, §2

Row | Compound | morphology of self-assembled structures [4] | size of self-assembled structures [4] | Other (random coil) [5] [%] | Turn [5] [%] | α-helix [5] [%] | β-sheet [5] [%] | also measured
1 | N[C@H](C(=O)O)C(c1ccccc1)c1ccccc1 [Dip, 3,3-diphenyl-L-alanine] |  |  |  |  |  |  | Log P (partition coefficient) [1]: 2.93
2 | N=C(N)NCCC[C@@H]1NC(=O)[C@H](C(c2ccccc2)c2ccccc2)NC(=O)[C@H](CCCNC(=N)N)NC(=O)[C@H](C(c2ccccc2)c2ccccc2)NC(=O)[C@H](CCCNC(=N)N)NC(=O)[C@H](C(c2ccccc2)c2ccccc2)NC(=O)[C@H](CCCNC(=N)N)NC(=O)[C@H](C(c2ccccc2)c2ccccc2)NC(=O)[C@H](CCCNC(=N)N)NC(=O)[C@H](C(c2ccccc2)c2ccccc2)NC(=O)[C@H](CCCCNC(=O)c2ccc3c(c2)C(=O)OC32c3ccc(O)cc3Oc3cc(O)ccc32)NC1=O [F’-[K(DipR)5]] (cyclo([Dip]R[Dip]R[Dip]R[Dip]R[Dip]RK(5FAM))) |  |  |  |  |  |  | cytotoxicity (CCRF-CEM cells [2]; 10 µM, 3 h and 24 h incubations): minimal cytotoxicity; cytotoxicity (CCRF-CEM cells [2]; 166 µM, 3 h incubation): no cytotoxicity
3 | N=C(N)NCCC[C@@H]1NC(=O)[C@H](Cc2c[nH]c3ccccc23)NC(=O)[C@H](CCCNC(=N)N)NC(=O)[C@H](Cc2c[nH]c3ccccc23)NC(=O)[C@H](CCCNC(=N)N)NC(=O)[C@H](C(c2ccccc2)c2ccccc2)NC(=O)[C@H](CCCNC(=N)N)NC(=O)[C@H](C(c2ccccc2)c2ccccc2)NC(=O)[C@H](CCCNC(=N)N)NC(=O)[C@H](Cc2c[nH]c3ccccc23)NC1=O [[(DipR)2(WR)3]] (cyclo([Dip]R[Dip]RWRWRWR)) | star-shaped particles | 1000–2000 nm | 47.8 | 12.8 | 20.8 | 18.6 | increase of cellular uptake of F’-GpYEEI vs cargo alone (CCRF-CEM cells [3]; F’-GpYEEI 2 µM): approximately 7 fold
4 | N=C(N)NCCC[C@@H]1NC(=O)[C@H](Cc2c[nH]c3ccccc23)NC(=O)[C@H](CCCNC(=N)N)NC(=O)[C@H](C(c2ccccc2)c2ccccc2)NC(=O)[C@H](CCCNC(=N)N)NC(=O)[C@H](C(c2ccccc2)c2ccccc2)NC(=O)[C@H](CCCNC(=N)N)NC(=O)[C@H](C(c2ccccc2)c2ccccc2)NC(=O)[C@H](CCCNC(=N)N)NC(=O)[C@H](Cc2c[nH]c3ccccc23)NC1=O [[(DipR)3(WR)2]] (cyclo([Dip]R[Dip]R[Dip]RWRWR)) |  |  | 38.4 | 17.0 | 13.1 | 31.5 | 
5 | N=C(N)NCCC[C@@H]1NC(=O)[C@H](Cc2c[nH]c3ccccc23)NC(=O)[C@H](CCCNC(=N)N)NC(=O)[C@H](C(c2ccccc2)c2ccccc2)NC(=O)[C@H](CCCNC(=N)N)NC(=O)[C@H](C(c2ccccc2)c2ccccc2)NC(=O)[C@H](CCCNC(=N)N)NC(=O)[C@H](C(c2ccccc2)c2ccccc2)NC(=O)[C@H](CCCNC(=N)N)NC(=O)[C@H](C(c2ccccc2)c2ccccc2)NC1=O [[(DipR)4(WR)]] (cyclo([Dip]R[Dip]R[Dip]R[Dip]RWR)) |  |  | 39.7 | 16.8 | 8.6 | 34.9 | 
6 | N=C(N)NCCC[C@@H]1NC(=O)[C@H](Cc2c[nH]c3ccccc23)NC(=O)[C@H](CCCNC(=N)N)NC(=O)[C@H](Cc2c[nH]c3ccccc23)NC(=O)[C@H](CCCNC(=N)N)NC(=O)[C@H](C(c2ccccc2)c2ccccc2)NC(=O)[C@H](CCCNC(=N)N)NC(=O)[C@H](Cc2c[nH]c3ccccc23)NC(=O)[C@H](CCCNC(=N)N)NC(=O)[C@H](Cc2c[nH]c3ccccc23)NC1=O [[(DipR)(WR)4]] | nanofiber structure | ~50 nm | 40.5 | 13.8 | 28.9 | 16.8 | reduction of cell proliferation (HEK-293 cells): 8%; reduction of cell proliferation (SK-OV-3 cells; SK-OV-3, 10 µM, 72 h incubation): 40%; reduction of cell proliferation (SK-OV-3 cells; SK-OV-3, 25 µM, 24 h incubation): 76%; increase of cellular uptake of F’-d4T vs cargo alone (CCRF-CEM cells [3]; F’-d4T 2 µM): 12 fold; reduction of cell proliferation (CCRF-CEM cells [2]; 24 h incubation): 47%; reduction of cell proliferation (CCRF-CEM cells [2]; 72 h incubation): 32%
